According to EP1144365B1 (TANABE SEIYAKU CO., LTD., priority 1998, dated 2000):

Key:
α4β1 = biological target: T1, α4β1 (Homo sapiens, UniProt P05556+P13612); assay: Jurkat-CS-1 assay; type: cell-based; conditions: Jurkat cell adhesion to immobilized CS-1 derived peptide
T1 construct: 100 µl of Jurkat cells (2.5 x 10^6 cells/ml) in DMEM plus BSA; host or cells: Jurkat T-cell line

α4β1 integrin = biological target: T2, α4β1 integrin (Homo sapiens, UniProt P05556+P13612); assay: Jurkat-Endothelial Cell Adhesion Assay (Jurkat EC); type: cell-based; conditions: Jurkat cell adhesion to IL-1 stimulated endothelial cell monolayers
T2 construct: a T-cell line, Jurkat, known to express the α4β1 integrin; host or cells: Jurkat T-cell line
Summary of the method: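 BCECF-loaded Jurkat T cells (5 x 10^5) mixed with compound, generally 100, 20, 5 and 1.25 µM, in DMEM-HSA, added to HUVEC monolayers prestimulated 4 h with 0.1 ng/ml IL-1. After washing, adherent-cell fluorescence read; % adhesion relative to no-compound control set at 100%.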

T1 sequence (P13612 34-1032): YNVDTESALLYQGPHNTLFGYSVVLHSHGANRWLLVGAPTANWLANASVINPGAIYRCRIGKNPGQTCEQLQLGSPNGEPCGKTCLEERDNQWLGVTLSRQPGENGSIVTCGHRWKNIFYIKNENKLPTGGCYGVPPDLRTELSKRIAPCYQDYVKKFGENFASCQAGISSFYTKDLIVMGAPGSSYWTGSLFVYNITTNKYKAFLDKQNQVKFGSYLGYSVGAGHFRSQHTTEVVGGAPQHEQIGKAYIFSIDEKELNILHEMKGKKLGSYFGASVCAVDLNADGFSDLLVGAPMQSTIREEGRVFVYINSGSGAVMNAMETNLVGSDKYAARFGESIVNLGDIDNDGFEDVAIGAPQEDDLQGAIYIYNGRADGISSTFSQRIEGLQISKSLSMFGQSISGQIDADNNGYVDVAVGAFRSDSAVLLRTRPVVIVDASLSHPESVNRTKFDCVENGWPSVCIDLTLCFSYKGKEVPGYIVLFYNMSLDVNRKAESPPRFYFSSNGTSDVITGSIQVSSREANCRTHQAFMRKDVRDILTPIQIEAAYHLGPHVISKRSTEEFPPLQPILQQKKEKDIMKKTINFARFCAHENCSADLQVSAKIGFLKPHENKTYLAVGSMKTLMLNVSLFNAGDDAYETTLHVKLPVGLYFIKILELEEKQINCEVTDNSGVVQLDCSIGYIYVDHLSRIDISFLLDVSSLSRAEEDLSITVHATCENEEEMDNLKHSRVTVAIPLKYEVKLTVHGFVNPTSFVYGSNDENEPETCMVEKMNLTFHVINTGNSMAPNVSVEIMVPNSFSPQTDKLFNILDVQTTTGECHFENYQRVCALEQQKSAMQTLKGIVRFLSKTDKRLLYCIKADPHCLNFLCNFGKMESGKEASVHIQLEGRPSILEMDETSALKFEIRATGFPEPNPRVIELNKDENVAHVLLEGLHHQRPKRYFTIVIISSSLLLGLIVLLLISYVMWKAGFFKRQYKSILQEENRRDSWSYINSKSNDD
T1 sequence (P05556 21-798): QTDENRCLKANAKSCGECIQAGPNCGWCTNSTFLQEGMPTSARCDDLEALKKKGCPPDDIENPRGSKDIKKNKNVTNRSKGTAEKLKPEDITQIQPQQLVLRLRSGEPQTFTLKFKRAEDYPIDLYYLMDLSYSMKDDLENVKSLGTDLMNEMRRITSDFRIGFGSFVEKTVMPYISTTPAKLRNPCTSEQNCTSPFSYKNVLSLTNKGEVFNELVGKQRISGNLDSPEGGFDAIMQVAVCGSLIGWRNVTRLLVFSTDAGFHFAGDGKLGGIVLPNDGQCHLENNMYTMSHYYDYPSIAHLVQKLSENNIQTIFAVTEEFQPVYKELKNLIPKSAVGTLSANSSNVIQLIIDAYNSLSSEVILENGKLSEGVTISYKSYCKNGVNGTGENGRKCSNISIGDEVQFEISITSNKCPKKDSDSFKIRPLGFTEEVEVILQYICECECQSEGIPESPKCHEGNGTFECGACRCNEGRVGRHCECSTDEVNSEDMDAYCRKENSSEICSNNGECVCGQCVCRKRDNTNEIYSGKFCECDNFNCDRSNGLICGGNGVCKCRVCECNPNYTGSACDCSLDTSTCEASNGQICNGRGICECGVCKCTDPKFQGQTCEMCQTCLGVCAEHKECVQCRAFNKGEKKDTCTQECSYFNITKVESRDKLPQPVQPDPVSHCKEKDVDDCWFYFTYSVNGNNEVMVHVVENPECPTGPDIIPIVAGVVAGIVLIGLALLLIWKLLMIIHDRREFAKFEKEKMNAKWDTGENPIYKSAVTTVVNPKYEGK
T2 sequence (P13612 34-1032): as the sequence (P13612 34-1032) above
T2 sequence (P05556 21-798): as the sequence (P05556 21-798) above

| IC50 (α4β1) [nM] | IC50 (α4β1 integrin) [nM] | Compound |
| --- | --- | --- |
| 500 to 1000 | 800 to 5000 | CC(=O)[C@@H]1C[C@H](CC(=O)N[C@@H](Cc2ccc(NC(=O)c3c(Cl)cccc3Cl)cc2)C(=O)O)C1(C)C [Example 91, (1R-cis)-N-[(3-Acetyl-2,2-dimethylcyclobutyl)acetyl]-4-[(2,6-dichlorobenzoyl)amino]-L-phenylalanine] |
| 80 to 500 | 800 to 5000 | O=C(O)c1ccccc1C(=O)NC1(C(=O)N[C@@H](Cc2ccc(NC(=O)c3c(Cl)cccc3Cl)cc2)C(=O)O)CCCCC1 [Example 56] |
| 80 to 500 | ≤ 800 | O=C(O)/C=C\C(=O)NC1(C(=O)N[C@@H](Cc2ccc(NC(=O)c3c(Cl)cccc3Cl)cc2)C(=O)O)CCCCC1 [Example 49] |
| 80 to 500 | ≤ 800 | O=C(O)c1ccc(C(=O)NC2(C(=O)N[C@@H](Cc3ccc(NC(=O)c4c(Cl)cccc4Cl)cc3)C(=O)O)CC3CCC2C3)nc1 (some centres unmarked) [Example 72] |
| 80 to 500 | ≤ 800 | CC1(C)[C@H](C(=O)O)C[C@H]1C(=O)N[C@@H](Cc1ccc(NC(=O)c2c(Cl)cccc2Cl)cc1)C(=O)O [Example 102, (1R-trans)-N-[(3-Carboxy-2,2-dimethylcyclobutyl)carbonyl]-4-[(2,6-dichlorobenzoyl)amino]-L-phenylalanine] |
| 80 to 500 | 800 to 5000 | CC(=O)[C@@H]1C[C@H](C(=O)N[C@@H](Cc2ccc(NC(=O)c3ccc(Cl)nc3Cl)cc2)C(=O)O)C1(C)C [Example 107, (1S-cis)-N-[(3-Acetyl-2,2-dimethylcyclobutyl)carbonyl]-4-[[(2,6-dichloro-3-pyridinyl)carbonyl]amino]-L-phenylalanine] |
| 80 to 500 | ≤ 800 | O=C(Nc1ccc(CC(NC(=O)C2CCCCC2NC(=O)C2CCOC2)C(=O)O)cc1)c1c(Cl)cccc1Cl (centres unmarked) [Example 87] |
| 80 to 500 | 800 to 5000 | O=C(NC1(C(=O)N[C@@H](Cc2ccc(NC(=O)c3c(Cl)cccc3Cl)cc2)C(=O)O)CC2CCC1C2)c1cc(C(=O)O)[nH]n1 (some centres unmarked) [Example 74] |
| 80 to 500 | ≤ 800 | O=C(Nc1ccc(CC(NC(=O)C2CCCCC2NC(=O)C2NC(C(=O)O)CS2)C(=O)O)cc1)c1c(Cl)cccc1Cl (centres unmarked) [Example 84] |
| ≤ 80 | 800 to 5000 | O=C(O)C=C1CCC(C(=O)N[C@@H](Cc2ccc(NC(=O)c3c(Cl)cccc3Cl)cc2)C(=O)O)CC1 (stereo partly drawn) [Example 126, N-[[4-(Carboxymethylene)cyclohexyl]carbonyl]-4-[(2,6-dichlorobenzoyl)amino]-L-phenylalanine] |
| ≤ 80 | ≤ 800 | O=C(Nc1ccc(CC(NC(=O)C2CCCCC2NC(=O)C2CCCO2)C(=O)O)cc1)c1c(Cl)cccc1Cl (centres unmarked) [Example 86] |
| 500 to 1000 | 800 to 5000 | O=C(N[C@@H](Cc1ccc(NC(=O)c2c(Cl)cccc2Cl)cc1)C(=O)O)c1cccc(NC(=O)C2CCCC(C(=O)O)C2)c1 (some centres unmarked) [Example 38] |
| ≤ 80 | ≤ 800 | O=C(O)/C=C1/CCCc2c(C(=O)N[C@@H](Cc3ccc(NC(=O)c4c(Cl)cccc4Cl)cc3)C(=O)O)cccc21 [Example 131, N-[[(5Z)-5-Carboxymethylene-7,8-dihydro-1(6H)-naphthyl]carbonyl]-4-[(2,6-dichlorobenzoyl)amino]-L-phenylalanine] |
| 500 to 1000 | 5000 to 10000 | CC(=O)[C@H]1C[C@@H](CC(=O)N[C@@H](Cc2ccc(NC(=O)c3c(Cl)cccc3Cl)cc2)C(=O)O)C1(C)C [Example 88, (1S-cis)-N-[(3-Acetyl-2,2-dimethylcyclobutyl)acetyl]-4-[(2,6-dichlorobenzoyl)amino]-L-phenylalanine] |
| 80 to 500 | ≤ 800 | O=C(Nc1ccc(C[C@H](NC(=O)N2CCCC(C(=O)O)C2)C(=O)O)cc1)c1c(Cl)cccc1Cl (stereo partly drawn) [Example 114, 1-[[[(1S)-1-carboxy-2-[4-[(2,6-dichlorobenzoyl)amino]phenyl]ethyl]amino]carbonyl]-3-piperidinecarboxylic acid] |

| Compound | IC50 (α4β1) [nM] | IC50 (α4β1 integrin) [nM] |
| --- | --- | --- |
| O=C(/C=C/c1ccc(C(=O)O)cc1)N[C@@H](Cc1ccc(NC(=O)c2c(Cl)cccc2Cl)cc1)C(=O)O [Example 123] | 500 to 1000 | 5000 to 10000 |
